In patent publication US11591326B2, “Inhibitors of protein arginine methyltransferase 5 (PRMT5), pharmaceutical products thereof, and methods thereof” (PHARMABLOCK SCIENCES (NANJING), INC., priority 2018, dated 2023):

Biological target: Human recombinant PRMT5 in complex with human recombinant MEP50 (Homo sapiens (Human), UniProt O14744)
Test: PRMT5/MEP50 AlphaLISA enzyme inhibitory assay
Format: biochemical
Settings: PRMT5/MEP50 25 nM, SAM 10 μM, Biotin-H4 peptide 30 nM
Excerpt: Human recombinant PRMT5 in complex with human recombinant MEP50, co-expressed in an insect cell/baculovirus expression system was purchased from Reaction Biology (Malvern, Pa.). […] Anti-H4R3-Me AlphaLISA acceptor beads and Streptavidin labeled AlphaLISA donor beads were obtained from PerkinElmer (Waltham, Mass.). S-adenosylmethionine (SAM), Tween20, dimethylsulfoxide (DMSO), and Tris buffer were obtained from Sigma at the highest level of purity available.
General Procedure for PRMT5/MEP50 AlphaLISA Enzyme Inhibitory Assays: Assays were performed in the buffer consisting of 50 mM Tris, pH 8.5, 5 mM MgCl2, 50 mM NaCl with 0.01% Tween20 and 1 mM DTT added right before the assay. 2.5 μL of compound solution in the assay buffer with 4% DMSO and 5 μL of PRMT5/MRP50 complex/SAM mixture solution in the assay buffer which was pre-incubated for 30 minutes were added into a white low volume 384 well microtiter plate. This mixture solution was incubated for 15 minutes with gentle shaking at room temperature. Methyl transfer reaction was initiated by adding 2.5 μL of Biotin-H4 (1-21) peptide substrate solution in the assay buffer. Final concentrations of PRMT5/MEP50, SAM, Biotin-H4 peptide substrate, and DMSO were 25 nM, 10 μM, 30 nM, and 1%, respectively. The reaction was allowed to perform for 120 minutes in dark with gentle shaking at room temperature after which 5 μL of Anti-H4R3-Me AlphaLISA acceptor beads in detection buffer from the manufacturer was added into the reaction mixture followed by incubation for 60 minutes. 10 μL of Streptavidin labeled AlphaLISA donor beads in detection buffer was added into the mixture followed by 30 minute incubation. Final acceptor and donor beads concentrations were 10 μg/mL. Plates were read on an Envision multimode plate reader from PerkinElmer (Waltham Mass., USA) with an excitation wavelength of 680 nm and emission wavelength of 615 nm. IC50 values of inhibitors were obtained by fitting the fluorescence intensity vs inhibitor concentrations in a sigmoidal dose-response curve (variable slopes, four parameters) using Prism 7 (La Jolla, Calif.).

Chain of Human recombinant PRMT5 in complex with human recombinant MEP50 (O14744 whole entry): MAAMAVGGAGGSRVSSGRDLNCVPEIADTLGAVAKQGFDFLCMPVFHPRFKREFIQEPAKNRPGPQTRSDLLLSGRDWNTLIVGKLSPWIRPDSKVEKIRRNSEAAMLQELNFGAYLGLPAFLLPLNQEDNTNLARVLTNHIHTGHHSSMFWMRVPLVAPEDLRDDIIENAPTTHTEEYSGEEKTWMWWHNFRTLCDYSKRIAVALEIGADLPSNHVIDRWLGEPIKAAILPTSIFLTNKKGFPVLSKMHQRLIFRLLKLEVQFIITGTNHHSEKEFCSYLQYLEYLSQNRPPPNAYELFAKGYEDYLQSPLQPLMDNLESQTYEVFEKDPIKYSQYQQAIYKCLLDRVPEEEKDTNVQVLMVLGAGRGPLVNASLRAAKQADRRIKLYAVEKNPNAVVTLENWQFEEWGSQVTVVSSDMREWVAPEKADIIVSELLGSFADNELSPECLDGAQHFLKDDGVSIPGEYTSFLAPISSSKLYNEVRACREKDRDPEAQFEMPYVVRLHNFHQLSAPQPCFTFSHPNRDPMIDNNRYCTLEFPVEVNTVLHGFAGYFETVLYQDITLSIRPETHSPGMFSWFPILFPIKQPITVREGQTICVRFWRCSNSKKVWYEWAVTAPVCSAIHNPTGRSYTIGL
Chain of Human recombinant PRMT5 in complex with human recombinant MEP50 (Q9BQA1 whole entry partner): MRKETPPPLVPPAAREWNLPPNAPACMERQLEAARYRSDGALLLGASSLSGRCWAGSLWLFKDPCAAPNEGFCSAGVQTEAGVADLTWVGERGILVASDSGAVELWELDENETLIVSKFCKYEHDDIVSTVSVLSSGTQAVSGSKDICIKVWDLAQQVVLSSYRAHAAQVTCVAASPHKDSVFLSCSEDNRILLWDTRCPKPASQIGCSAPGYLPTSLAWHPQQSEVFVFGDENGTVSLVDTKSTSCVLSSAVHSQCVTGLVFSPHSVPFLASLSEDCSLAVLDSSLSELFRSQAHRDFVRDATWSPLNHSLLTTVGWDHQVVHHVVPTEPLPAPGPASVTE

Row | SMILES | IC50 [nM]
1 | Cn1cc(Nc2cc3c(cc2Cl)CCN(CC(O)CN2CCc4ccccc4C2)C3=O)cn1 (stereo not shown) [Compound 26, 6-chloro-2-(3-(3,4-dihydroisoquinolin-2(1H)-yl)-2-hydroxypropyl)-7-((1-methyl-1H-pyrazol-4-yl)amino)-3,4-dihydroisoquinolin-1(2H)-one] | 487
2 | Cn1ccc(Nc2ccc3c(c2)C(=O)N(CC(O)CN2CCc4ccccc4C2)CC3)cc1=O (stereo not shown) [Compound 27, 2-(3-(3,4-dihydroisoquinolin-2(1H)-yl)-2-hydroxypropyl)-7-((1-methyl-2-oxo-1,2-dihydropyridin-4-yl)amino)-3,4-dihydroisoquinolin-1(2H)-one] | 21
3 | O=C1c2cc(Nc3ccnnc3)ccc2CCN1CC(O)CN1CCc2ccccc2C1 (stereo not shown) [Compound 28] | 11.4
4 | O=C1c2cc(Nc3ccnnc3)ccc2CCN1C[C@@H](O)CN1CCc2ccccc2C1 [Compound 28b, (S)-2-(3-(3,4-dihydroisoquinolin-2(1H)-yl)-2-hydroxypropyl)-7-(pyridazin-4-ylamino)-3,4-dihydroisoquinolin-1(2H)-one] | 296
5 | Cn1cc(Nc2ccc3c(c2)C(=O)N(CC(O)CN2CCc4ccccc4C2)CCO3)cn1 (stereo not shown) [Compound 29] | 39
6 | Cn1cc(Nc2ccc3c(c2)C(=O)N(C[C@@H](O)CN2CCc4ccccc4C2)CCO3)cn1 [Compound 29b, (S)-4-(3-(3,4-dihydroisoquinolin-2(1H)-yl)-2-hydroxypropyl)-7-((1-methyl-1H-pyrazol-4-yl)amino)-3,4-dihydrobenzo[f][1,4]oxazepin-5(2H)-one] | 126
7 | O=C1c2cc(Nc3ccnnc3)ccc2OCCN1C[C@@H](O)CN1CCc2ccccc2C1 [Compound 30b, (S)-4-(3-(3,4-dihydroisoquinolin-2(1H)-yl)-2-hydroxypropyl)-7-(pyridazin-4-ylamino)-3,4-dihydrobenzo[f][1,4]oxazepin-5(2H)-one] | 36
8 | O=c1c2cc(Nc3ccnnc3)ccc2ncn1CC(O)CN1CCc2ccccc2C1 (stereo not shown) [Compound 31, 3-(3-(3,4-dihydroisoquinolin-2(1H)-yl)-2-hydroxypropyl)-6-(pyridazin-4-ylamino)quinazolin-4(3H)-one] | 179
9 | O=c1c2cc(Nc3ccnnc3)ccc2ccn1CC(O)CN1CCc2ccccc2C1 (stereo not shown) [Compound 32, 2-(3-(3,4-dihydroisoquinolin-2(1H)-yl)-2-hydroxypropyl)-7-(pyridazin-4-ylamino)isoquinolin-1(2H)-one] | 37.2
10 | O=c1c2cc(Nc3ccnnc3)ccc2cnn1CC(O)CN1CCc2ccccc2C1 (stereo not shown) [Compound 33, 2-(3-(3,4-dihydroisoquinolin-2(1H)-yl)-2-hydroxypropyl)-7-(pyridazin-4-ylamino)phthalazin-1(2H)-one] | 22.4
11 | CC1(C)CN(CC(O)CN2CCc3ccccc3C2)C(=O)c2cc(Nc3ccnnc3)ccc21 (stereo not shown) [Compound 34, 2-(3-(3,4-dihydroisoquinolin-2(1H)-yl)-2-hydroxypropyl)-4,4-dimethyl-7-(pyridazin-4-ylamino)-3,4-dihydroisoquinolin-1(2H)-one] | 15.7
12 | O=C1c2cc(Nc3ccnnc3)ccc2C2(CC2)CN1CC(O)CN1CCc2ccccc2C1 (stereo not shown) [Compound 35, 2′-(3-(3,4-dihydroisoquinolin-2(1H)-yl)-2-hydroxypropyl)-7′-(pyridazin-4-ylamino)-2′,3′-dihydro-1′H-spiro[cyclopropane-1,4′-isoquinolin]-1′-one] | 6.1
13 | O=C1c2cc(Nc3cncnc3)ccc2OCCN1C[C@H](O)CN1CCc2ccccc2C1 [Compound 36, (R)-4-(3-(3,4-dihydroisoquinolin-2(1H)-yl)-2-hydroxypropyl)-7-(pyrimidin-5-ylamino)-3,4-dihydrobenzo[f][1,4]oxazepin-5(2H)-one] | 10.3
14 | O=C1c2cc(Nc3ccncn3)ccc2OCCN1C[C@H](O)CN1CCc2ccccc2C1 [Compound 37, (R)-4-(3-(3,4-dihydroisoquinolin-2(1H)-yl)-2-hydroxypropyl)-7-(pyrimidin-4-ylamino)-3,4-dihydrobenzo[f][1,4]oxazepin-5(2H)-one] | 9.9
15 | O=C1c2cc(Nc3cnccn3)ccc2OCCN1C[C@H](O)CN1CCc2ccccc2C1 [Compound 38, (R)-4-(3-(3,4-dihydroisoquinolin-2(1H)-yl)-2-hydroxypropyl)-7-(pyrazin-2-ylamino)-3,4-dihydrobenzo[f][1,4]oxazepin-5(2H)-one] | 13.6
16 | O=C1c2cc(Nc3cccnn3)ccc2OCCN1C[C@H](O)CN1CCc2ccccc2C1 [Compound 39, (R)-4-(3-(3,4-dihydroisoquinolin-2(1H)-yl)-2-hydroxypropyl)-7-(pyridazin-3-ylamino)-3,4-dihydrobenzo[f][1,4]oxazepin-5(2H)-one] | 22.5

Second part, the molecule after the results:

Row | IC50 [nM] | SMILES
17 | 12.2 | Cn1ccc(Nc2ccc3c(c2)C(=O)N(C[C@H](O)CN2CCc4ccccc4C2)CCO3)cc1=O [Compound 40, (R)-4-(3-(3,4-dihydroisoquinolin-2(1H)-yl)-2-hydroxypropyl)-7-((1-methyl-2-oxo-1,2-dihydropyridin-4-yl)amino)-3,4-dihydrobenzo[f][1,4]oxazepin-5(2H)-one]
18 | 9.9 | Cn1nccc1Nc1ccc2c(c1)C(=O)N(C[C@H](O)CN1CCc3ccccc3C1)CCO2 [Compound 41, (R)-4-(3-(3,4-dihydroisoquinolin-2(1H)-yl)-2-hydroxypropyl)-7-((1-methyl-1H-pyrazol-5-yl)amino)-3,4-dihydrobenzo[f][1,4]oxazepin-5(2H)-one]
19 | 20.2 | Cc1nnc(Nc2ccc3c(c2)C(=O)N(C[C@H](O)CN2CCc4ccccc4C2)CCO3)o1 [Compound 42, (R)-4-(3-(3,4-dihydroisoquinolin-2(1H)-yl)-2-hydroxypropyl)-7-((5-methyl-1,3,4-oxadiazol-2-yl)amino)-3,4-dihydrobenzo[f][1,4]oxazepin-5(2H)-one]
20 | 51.7 | CN1CC(Nc2ccc3c(c2)C(=O)N(C[C@H](O)CN2CCc4ccccc4C2)CCO3)CC1=O (stereo partly drawn) [Compound 43, 4-((R)-3-(3,4-dihydroisoquinolin-2(1H)-yl)-2-hydroxypropyl)-7-((1-methyl-5-oxopyrrolidin-3-yl)amino)-3,4-dihydrobenzo[f][1,4]oxazepin-5(2H)-one]
21 | 6.9 | CN1C(=O)CN(CC(O)CN2CCc3ccccc3C2)C(=O)c2cc(Nc3ccnnc3)ccc21 (stereo not shown) [Compound 44, 4-(3-(3,4-dihydroisoquinolin-2(1H)-yl)-2-hydroxypropyl)-1-methyl-7-(pyridazin-4-ylamino)-3,4-dihydro-1H-benzo[e][1,4]diazepine-2,5-dione]
22 | 9.6 | CN1CCN(CC(O)CN2CCc3ccccc3C2)C(=O)c2cc(Nc3ccnnc3)ccc21 (stereo not shown) [Compound 45, 4-(3-(3,4-dihydroisoquinolin-2(1H)-yl)-2-hydroxypropyl)-1-methyl-7-(pyridazin-4-ylamino)-1,2,3,4-tetrahydro-5H-benzo[e][1,4]diazepin-5-one]
23 | 138 | CC(=O)N1CCC(Nc2ccc3c(c2F)C(=O)N(CC(O)CN2CCc4ccccc4C2)CCO3)CC1 (stereo not shown) [Compound 46, 7-((1-acetylpiperidin-4-yl)amino)-4-(3-(3,4-dihydroisoquinolin-2(1H)-yl)-2-hydroxypropyl)-6-fluoro-3,4-dihydrobenzo[f][1,4]oxazepin-5(2H)-one]
24 | 56.3 | O=C1c2cc(Nc3ccnnc3)cnc2OCCN1CC(O)CN1CCc2ccccc2C1 (stereo not shown) [Compound 47, 4-(3-(3,4-dihydroisoquinolin-2(1H)-yl)-2-hydroxypropyl)-7-(pyridazin-4-ylamino)-3,4-dihydropyrido[3,2-f][1,4]oxazepin-5(2H)-one]
25 | 15.8 | O=C1c2cc(Nc3ccnnc3)ncc2OCCN1CC(O)CN1CCc2ccccc2C1 (stereo not shown) [Compound 48, 4-(3-(3,4-dihydroisoquinolin-2(1H)-yl)-2-hydroxypropyl)-7-(pyridazin-4-ylamino)-3,4-dihydropyrido[4,3-f][1,4]oxazepin-5(2H)-one]
26 | 690 | O=C1c2nc(Nc3ccnnc3)ccc2OCCN1CC(O)CN1CCc2ccccc2C1 (stereo not shown) [Compound 49, 4-(3-(3,4-dihydroisoquinolin-2(1H)-yl)-2-hydroxypropyl)-7-(pyridazin-4-ylamino)-3,4-dihydropyrido[2,3-f][1,4]oxazepin-5(2H)-one]
27 | 7.7 | O=C1c2cc(Nc3ccnnc3)c(F)cc2OCCN1CC(O)CN1CCc2ccccc2C1 (stereo not shown) [Compound 50, 4-(3-(3,4-dihydroisoquinolin-2(1H)-yl)-2-hydroxypropyl)-8-fluoro-7-(pyridazin-4-ylamino)-3,4-dihydrobenzo[f][1,4]oxazepin-5(2H)-one]
28 | 6.5 | O=C1c2cc(Nc3ccnnc3)cc(F)c2OCCN1CC(O)CN1CCc2ccccc2C1 (stereo not shown) [Compound 51, 4-(3-(3,4-dihydroisoquinolin-2(1H)-yl)-2-hydroxypropyl)-9-fluoro-7-(pyridazin-4-ylamino)-3,4-dihydrobenzo[f][1,4]oxazepin-5(2H)-one]
